Assay results taken from patent US20250041429A1, “COMPOUND HAVING BTK PROTEIN DEGRADATION ACTIVITY, AND MEDICAL USES THEREOF” (UBIX THERAPEUTICS, INC., priority 2021, published 2025).

Biological target: T1, BTK protein (Homo sapiens, UniProt Q06187)
T1 construct: endogenous in cells; host or cells: TMD-8 cells
Test: Measurement of BTK protein degradation ability in TMD-8 cells (Western blotting)
Type: cell-based
Details: harvested after 24 hours; for BTK degradation (%) 1 nM: compound 1 nM; for BTK degradation (%) 10 nM: compound 10 nM; for BTK degradation (%) 100 nM: compound 100 nM
Procedure, shortened: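 BTK levels were measured by immunoblotting of equal-protein RIPA lysates, normalized to GAPDH or β-actin, with chemiluminescent or infrared detection. Lysates came from TMD-8 cells exposed to compound for 24 h at final concentrations of 0.1, 1, 10 μM or 0.0001–0.1 μM, against a DMSO control.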

T1 sequence (Q06187 whole entry): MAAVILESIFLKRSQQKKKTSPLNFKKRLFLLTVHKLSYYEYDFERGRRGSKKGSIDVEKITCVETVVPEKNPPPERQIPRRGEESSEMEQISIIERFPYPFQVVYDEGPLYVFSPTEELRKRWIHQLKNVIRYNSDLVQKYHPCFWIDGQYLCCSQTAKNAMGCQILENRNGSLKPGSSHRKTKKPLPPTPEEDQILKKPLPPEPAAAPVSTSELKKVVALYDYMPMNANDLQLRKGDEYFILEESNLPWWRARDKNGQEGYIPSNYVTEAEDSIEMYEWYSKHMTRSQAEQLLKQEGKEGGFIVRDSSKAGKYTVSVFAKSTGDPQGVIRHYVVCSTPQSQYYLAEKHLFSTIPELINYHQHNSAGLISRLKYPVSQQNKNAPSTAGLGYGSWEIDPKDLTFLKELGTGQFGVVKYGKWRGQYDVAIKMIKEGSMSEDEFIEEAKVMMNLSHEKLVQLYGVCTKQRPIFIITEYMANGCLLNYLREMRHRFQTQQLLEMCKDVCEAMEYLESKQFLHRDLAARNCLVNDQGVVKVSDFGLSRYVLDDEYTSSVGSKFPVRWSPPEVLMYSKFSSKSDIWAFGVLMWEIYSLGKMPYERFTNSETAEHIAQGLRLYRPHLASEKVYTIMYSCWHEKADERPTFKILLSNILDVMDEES

Row | SMILES | BTK degradation (%) 1 nM [%] | BTK degradation (%) 10 nM [%] | BTK degradation (%) 100 nM [%]
1 | Cc1cc(-c2ccnc(Nc3ccc(N4CCC(CN5CCC(c6ccc(NC7CCC(=O)NC7=O)cc6)CC5)CC4)cc3)n2)ccc1CNC(=O)c1cnn(C(C)C)c1 (stereo not drawn) [Example 134, N-(4-(2-((4-(4-((4-(4-((2,6-dioxopiperidin-3-yl)amino)phenyl)piperidin-1-yl)methyl)piperidin-1-yl)phenyl)amino)pyrimidin-4-yl)-2-methylbenzyl)-1-isopropyl-1H-pyrazole-4-carboxamide] | 58.5 | 93.5 | 98.5
2 | Cc1cc(-c2ccnc(Nc3ccc(N4CCC(CN5CCC(c6ccc(NC7CCC(=O)NC7=O)cc6)CC5)CC4)cc3)n2)ccc1CNC(=O)c1cnn(C(C)(C)C)c1 (stereo not drawn) [Example 135, 1-(tert-butyl)-N-(4-(2-((4-(4-((4-(4-((2,6-dioxopiperidin-3-yl)amino)phenyl)piperidin-1-yl)methyl)piperidin-1-yl)phenyl)amino)pyrimidin-4-yl)-2-methylbenzyl)-1H-pyrazole-4-carboxamide] | 59.0 | 94.5 | 99.0
3 | Cc1cc(-c2ccnc(Nc3ccc(N4CCC(CN5CCC(c6ccc(NC7CCC(=O)NC7=O)cc6)CC5)CC4)cc3)n2)ccc1CNC(=O)c1cn(C(C)(C)C)nn1 (stereo not drawn) [Example 136, 1-(tert-butyl)-N-(4-(2-((4-(4-((4-(4-((2,6-dioxopiperidin-3-yl)amino)phenyl)piperidin-1-yl)methyl)piperidin-1-yl)phenyl)amino)pyrimidin-4-yl)-2-methylbenzyl)-1H-1,2,3-triazole-4-carboxamide] | 71.0 | 95.5 | 98.5
4 | Cc1cc(-c2ccnc(Nc3ccc(N4CCC(CN5CCC(c6ccc(NC7CCC(=O)NC7=O)cc6)CC5)CC4)cc3)n2)cnc1CNC(=O)c1cn(C(C)(C)C)nn1 (stereo not drawn) [Example 137, 1-(tert-butyl)-N-((5-(2-((4-(4-((4-(4-((2,6-dioxopiperidin-3-yl)amino)phenyl)piperidin-1-yl)methyl)piperidin-1-yl)phenyl)amino)pyrimidin-4-yl)-3-methylpyridin-2-yl)methyl)-1H-1,2,3-triazole-4-carboxamide] | 25.0 | 81.5 | 97.0
5 | Cc1cc(-c2ccnc(Nc3ccc(N4CCC(CN5CCC(c6cccc(N7CCC(=O)NC7=O)c6)CC5)CC4)cc3)n2)ccc1CNC(=O)c1cn(C(C)(C)C)nn1 [Example 138, 1-(tert-butyl)-N-(4-(2-((4-(4-((4-(3-(2,4-dioxotetrahydropyrimidin-1 (2H)-yl)phenyl)piperidin-1-yl)methyl)piperidin-1-yl)phenyl)amino)pyrimidin-4-yl)-2-methylbenzyl)-1H-1,2,3-triazole-4-carboxamide] | 15.5 | 71.5 | 90.0
6 | Cc1cc(-c2ccnc(Nc3ccc(N4CCC(CN5CCC(c6ccc(N7CCC(=O)NC7=O)cc6)CC5)CC4)cc3)n2)ccc1CNC(=O)c1cn(C(C)(C)C)nn1 [Example 139, 1-(tert-butyl)-N-(4-(2-((4-(4-((4-(4-(2,4-dioxotetrahydropyrimidin-1 (2H)-yl)phenyl)piperidin-1-yl)methyl)piperidin-1-yl)phenyl)amino)pyrimidin-4-yl)-2-methylbenzyl)-1H-1,2,3-triazole-4-carboxamide] | 15.5 | 68.0 | 95.0
7 | Cc1cc(-c2ccnc(Nc3ccc(CN4CCC(CN5CCC(c6cccc(N7CCC(=O)NC7=O)c6)CC5)CC4)cc3)n2)ccc1CNC(=O)c1cn(C(C)(C)C)nn1 [Example 140] | 0.5 | 10.5 | 77.0
8 | Cc1cc(-c2ccnc(Nc3ccc(CN4CCC(CN5CCC(c6ccc(N7CCC(=O)NC7=O)cc6)CC5)CC4)cc3)n2)ccc1CNC(=O)c1cn(C(C)(C)C)nn1 [Example 141, 1-(tert-butyl)-N-(4-(2-((4-((4-((4-(4-(2,4-dioxotetrahydropyrimidin-1 (2H)-yl)phenyl)piperidin-1-yl)methyl)piperidin-1-yl)methyl)phenyl)amino)pyrimidin-4-yl)-2-methylbenzyl)-1H-1,2,3-triazole-4-carboxamide] | 15.0 | 70.5 | 96.5
9 | Cc1cc(-c2ccnc(Nc3ccc(CN4CCC(CN5CCC(c6ccc(NC7CCC(=O)NC7=O)cc6)CC5)CC4)cc3)n2)ccc1CNC(=O)c1cn(C(C)(C)C)nn1 (stereo not drawn) [Example 142, 1-(tert-butyl)-N-(4-(2-((4-((4-((4-(4-((2,6-dioxopiperidin-3-yl)amino)phenyl)piperidin-1-yl)methyl)piperidin-1-yl)methyl)phenyl)amino)pyrimidin-4-yl)-2-methylbenzyl)-1H-1,2,3-triazole-4-carboxamide] | 44.5 | 88.5 | 99.0
10 | CC(C)(C)n1cc(C(=O)NCc2ccc(-c3ccnc(Nc4ccc(N5CCC(CN6CCC(c7ccc(NC8CCC(=O)NC8=O)cc7)CC6)CC5)cc4)n3)cc2CO)nn1 (stereo not drawn) [Example 143, 1-(tert-butyl)-N-(4-(2-((4-(4-((4-(4-((2,6-dioxopiperidin-3-yl)amino)phenyl)piperidin-1-yl)methyl)piperidin-1-yl)phenyl)amino)pyrimidin-4-yl)-2-(hydroxymethyl)benzyl)-1H-1,2,3-triazole-4-carbamide] | 74.0 | 99.5 | 100.0
11 | Cc1cc(-c2ccnc(Nc3ccc(N4CCC(CN5CCC(c6ccc(OC7CCC(=O)NC7=O)cc6)CC5)CC4)nc3)n2)ccc1CNC(=O)N1CC(OC(C)C)C1 (stereo not drawn) [Example 144, N-(4-(2-((6-(4-((4-(4-((2,6-dioxopiperidin-3-yl)oxy)phenyl)piperidin-1-yl)methyl)piperidin-1-yl)pyridin-3-yl)amino)pyrimidin-4-yl)-2-methylbenzyl)-3-isopropoxyazetidine-1-carboxamide] | 28.0 | 77.0 | 98.5
12 | Cc1cc(-c2ccnc(Nc3ccc(N4CCC(CN5CCC(c6ccc(NC7CCC(=O)NC7=O)cc6)CC5)CC4)nc3)n2)ccc1CNC(=O)N1CC(OC(C)C)C1 (stereo not drawn) [Example 145, N-(4-(2-((6-(4-((4-(4-((2,6-dioxopiperidin-3-yl)amino)phenyl)piperidin-1-yl)methyl)piperidin-1-yl)pyridin-3-yl)amino)pyrimidin-4-yl)-2-methylbenzyl)-3-isopropoxyazetidine-1-carboxamide] | 27.5 | 85.0 | 99.0
13 | Cc1cc(-c2ccnc(Nc3ccc(N4CCC(CN5CCC(c6ccc(NC7CCC(=O)NC7=O)cc6)CC5)CC4)nc3)n2)ccc1CNC(=O)c1cn(C(C)(C)C)nn1 (stereo not drawn) [Example 146, 1-(tert-butyl)-N-(4-(2-((6-(4-((4-(4-((2,6-dioxopiperidin-3-yl)amino)phenyl)piperidin-1-yl)methyl)piperidin-1-yl)pyridin-3-yl)amino)pyrimidin-4-yl)-2-methylbenzyl)-1H-1,2,3-triazole-4-carboxamide] | 26.5 | 88.0 | 99.0
